Reference: patent US11589603B2, “Powdered nutritional product containing branched-chain amino acids and a sugar alcohol” (Abbott Laboratories, priority 2015, dated 2023)

What was measured:
Format in all cases: physicochemical
[1] = Example 3: aqueous dissolution of powdered leucine only (second material) with varying myo-inositol, LC/UV of filtrate; conditions: for Dissolved Leucine (g per 16 oz.): 3.5 g leucine only, water 21° C., 400 rpm
Protocol: (§1) Example 3 evaluates the effect that varying the myo-inositol concentration has on the aqueous dissolution of branched-chain amino acids. Two branched-chain amino acid materials were tested. The first material tested was 7.00 grams of a powdered branched-chain amino acid blend comprising 50 wt. % leucine, 25 wt. % isoleucine, and 25 wt. % valine. The second material tested was 3.5 grams of powdered leucine. Each material was tested with varying levels of powdered myo-inositol, expressed as a percentage of 17.6 grams (e.g., a serving of powdered nutritional product). For example, 1% myo-inositol is 0.176 grams, 2% myo-inositol is 0.352 grams, and so forth. The branched-chain amino acid material and the specified amount of myo-inositol were added to 16 fluid ounces of Milli-Q Plus water at 21° C. and stirred at 400 rpm. After 30 seconds and 60 seconds of stirring, an aliquot was obtained and filtered through a 0.45 μm PTFE membrane (Pall Life Sciences, Acrodisc CR 25, P/N 4501), and the filtrate of the first material was tested for valine, isoleucine, and leucine using the LC/UV method described below, while the filtrate of the second material was tested for leucine using the same LC/UV method. The test results for the first material tested are shown in Table 3, while the test results for the second material tested are shown in Table 4.
(§2) The LC/UV system used to perform the tests comprised the following: 1) Column: YMC ODS-AQ, 4.6 x 250 mm, 5 μm, Waters P/N AQ12S052546WT; 2) Mobile Phase: Milli-Q Plus water; 3) Flow Rate: 0.4 mL/minute; 4) Temperature: 40° C.; 5) Detection: UV at 192 nm; 6) Injection: 2 μL of filtrate; and 7) Run Time: 20 minutes.

[2] = Example 4: aqueous dissolution of branched-chain amino acids in a powdered nutritional product with varying myo-inositol, LC/UV of filtrate; conditions: 17.6 g powdered nutritional product, water 21° C., 400 rpm
Protocol: as §2
Example 4 evaluates the effect that myo-inositol concentration has on the aqueous dissolution of branched-chain amino acids (valine, isoleucine, and leucine) in a powdered nutritional product. One serving (17.6 grams) of the powdered nutritional product contains 7.00 grams of a branched-chain amino acid blend comprising 50 wt. % leucine, 25 wt. % isoleucine, and 25 wt. % valine. A serving of the powdered nutritional product with a specified amount of myo-inositol was added to 16 fluid ounces of Milli-Q Plus water at 21° C. and stirred at 400 rpm. At each specified time point, an aliquot was obtained and filtered through a 0.45 μm PTFE membrane (Pall Life Sciences, Acrodisc CR 25, P/N 4501), and the filtrate was tested for valine, isoleucine, and leucine using the LC/UV method as described in Example 3.

[3] = Example 3: aqueous dissolution of powdered branched-chain amino acid blend (first material) with varying myo-inositol, LC/UV of filtrate; conditions: for Dissolved amino acid (g per 16 oz.): 7.00 g BCAA blend, water 21° C., 400 rpm
Protocol: as §1, §2

[4] = Example 5: effect of inositol isomers on dissolution of L-leucine, LC/UV of filtrate; conditions: 3.50 g L-leucine without inositol isomer (None, n = 3), water 21° C., 400 rpm
Protocol: as §2, with “[…];” for “P/N AQ12S052546WT;”

[5] = myo-inositol 0% of 17.6 g, 30 seconds
[6] = myo-inositol 0% of 17.6 g, 60 seconds
[7] = myo-inositol 1% of 17.6 g, 30 seconds
[8] = myo-inositol 1% of 17.6 g, 60 seconds
[9] = myo-inositol 2% of 17.6 g, 30 seconds
[10] = myo-inositol 2% of 17.6 g, 60 seconds
[11] = myo-inositol 4% of 17.6 g, 30 seconds
[12] = myo-inositol 4% of 17.6 g, 60 seconds
[13] = myo-inositol 8% of 17.6 g, 30 seconds
[14] = myo-inositol 8% of 17.6 g, 60 seconds

Dissolved Leucine (g per 16 oz.) [1, 5]: 0.353 g per 16 oz.
Dissolved Leucine (g per 16 oz.) [1, 6]: 0.703 g per 16 oz.
Dissolved Leucine (g per 16 oz.) [1, 7]: 0.480 g per 16 oz.
Dissolved Leucine (g per 16 oz.) [1, 8]: 1.04 g per 16 oz.
Dissolved Leucine (g per 16 oz.) [1, 9]: 0.616 g per 16 oz.
Dissolved Leucine (g per 16 oz.) [1, 10]: 1.33 g per 16 oz.
Dissolved Leucine (g per 16 oz.) [1, 11]: 0.549 g per 16 oz.
Dissolved Leucine (g per 16 oz.) [1, 12]: 1.09 g per 16 oz.
Dissolved Leucine (g per 16 oz.) [1, 13]: 0.844 g per 16 oz.
Dissolved Leucine (g per 16 oz.) [1, 14]: 1.62 g per 16 oz.
slope of plot of leucine dissolution vs myo-inositol on a molar basis (FIG. 5) ([1]; second material, myo-inositol 0%, 1%, 2%, 30-second plot): 1.0816
Dissolved amino acid (g per 16 oz.) ([2]; myo-inositol 0%, 30 seconds): 1.73 g per 16 oz.
Dissolved amino acid (g per 16 oz.) ([2]; myo-inositol 0%, 60 seconds): 2.42 g per 16 oz.
Dissolved amino acid (g per 16 oz.) ([2]; myo-inositol 0%, 90 seconds): 2.67 g per 16 oz.
Dissolved amino acid (g per 16 oz.) ([2]; myo-inositol 0%, 240 seconds): 3.22 g per 16 oz.
Dissolved amino acid (g per 16 oz.) ([2]; myo-inositol 0%, 600 seconds): 3.44 g per 16 oz.
Dissolved amino acid (g per 16 oz.) ([2]; myo-inositol 1%, 30 seconds): 1.95 g per 16 oz.
Dissolved amino acid (g per 16 oz.) ([2]; myo-inositol 1%, 60 seconds): 2.51 g per 16 oz.
Dissolved amino acid (g per 16 oz.) ([2]; myo-inositol 1%, 90 seconds): 2.76 g per 16 oz.
Dissolved amino acid (g per 16 oz.) ([2]; myo-inositol 1%, 240 seconds): 3.27 g per 16 oz.
Dissolved amino acid (g per 16 oz.) ([2]; myo-inositol 1%, 600 seconds): 3.40 g per 16 oz.
Dissolved amino acid (g per 16 oz.) ([2]; myo-inositol 2%, 30 seconds): 1.91 g per 16 oz.
Dissolved amino acid (g per 16 oz.) ([2]; myo-inositol 2%, 60 seconds): 2.36 g per 16 oz.
Dissolved amino acid (g per 16 oz.) ([2]; myo-inositol 2%, 90 seconds): 2.67 g per 16 oz.
Dissolved amino acid (g per 16 oz.) ([2]; myo-inositol 2%, 240 seconds): 3.25 g per 16 oz.
Dissolved amino acid (g per 16 oz.) ([2]; myo-inositol 2%, 600 seconds): 3.45 g per 16 oz.
Dissolved amino acid (g per 16 oz.) ([2]; myo-inositol 4%, 30 seconds): 2.02 g per 16 oz.
Dissolved amino acid (g per 16 oz.) ([2]; myo-inositol 4%, 60 seconds): 2.47 g per 16 oz.
Dissolved amino acid (g per 16 oz.) ([2]; myo-inositol 4%, 90 seconds): 2.72 g per 16 oz.
Dissolved amino acid (g per 16 oz.) ([2]; myo-inositol 4%, 240 seconds): 3.23 g per 16 oz.
Dissolved amino acid (g per 16 oz.) ([2]; myo-inositol 4%, 600 seconds): 3.38 g per 16 oz.
Dissolved amino acid (g per 16 oz.) ([2]; myo-inositol 8%, 30 seconds): 1.94 g per 16 oz.
Dissolved amino acid (g per 16 oz.) ([2]; myo-inositol 8%, 60 seconds): 2.45 g per 16 oz.
Dissolved amino acid (g per 16 oz.) ([2]; myo-inositol 8%, 90 seconds): 2.66 g per 16 oz.
Dissolved amino acid (g per 16 oz.) ([2]; myo-inositol 8%, 240 seconds): 3.30 g per 16 oz.
Dissolved amino acid (g per 16 oz.) ([2]; myo-inositol 8%, 600 seconds): 3.48 g per 16 oz.
Dissolved amino acid (g per 16 oz.) [3, 5]: 0.596 g per 16 oz.
Dissolved amino acid (g per 16 oz.) [3, 6]: 1.21 g per 16 oz.
Dissolved amino acid (g per 16 oz.) [3, 7]: 0.860 g per 16 oz.
Dissolved amino acid (g per 16 oz.) [3, 8]: 1.51 g per 16 oz.
Dissolved amino acid (g per 16 oz.) [3, 9]: 0.747 g per 16 oz.
Dissolved amino acid (g per 16 oz.) [3, 10]: 1.53 g per 16 oz.
Dissolved amino acid (g per 16 oz.) [3, 11]: 0.729 g per 16 oz.
Dissolved amino acid (g per 16 oz.) [3, 12]: 1.36 g per 16 oz.
Dissolved amino acid (g per 16 oz.) [3, 13]: 1.09 g per 16 oz.
Dissolved amino acid (g per 16 oz.) [3, 14]: 1.94 g per 16 oz.
dissolution rate of leucine in first material compared with second material (FIG. 4) ([3]; 30 second time point, all myo-inositol concentrations): faster
Leu dissolved at 30 seconds (g/16 oz.) ([4]; 30 seconds): 0.422 ± 0.018 g/16 oz.
Leu dissolved at 60 seconds (% of total Leu) ([4]; 60 seconds): 23.7 ± 1.0 % of total Leu
Leu dissolved at 60 seconds (g/16 oz.) ([4]; 60 seconds): 0.828 ± 0.036 g/16 oz.
SMILES: CC(C)C[C@H](N)C(=O)O [Leucine, L-Leucine]
